Earlier results as cited in patent publication US20260199246A1, “LUMATEPERONE PHARMACEUTICAL COMPOSITION, AND LONG-ACTING MICROSPHERE SUSTAINED-RELEASE FORMULATION AND PREPARATION METHOD THEREFOR” (SICHUAN KELUN PHARMACEUTICAL RESEARCH INSTITUTE CO., LTD., priority 2022, published 2026).

Settings: compared with risperidone

CN1CCN2c3c(cccc31)[C@@H]1CN(CCCC(=O)c3ccc(F)cc3)CC[C@@H]12 [Lumiperone, Lumateperone]
reduction of the risk of weight gain: 13%
